Laboratory results from US12433865B2, “Compositions comprising PGI2-receptor agonists and processes for the preparation thereof” (Arena Pharmaceuticals, Inc., priority 2018, dated 2025).

Test: Release (dissolution) profile of capsules, USP Apparatus 2 (paddle)
Format: physicochemical
Source text: USP Apparatus 2 (Paddle Apparatus) is described, for example, in the United States Pharmacopeial Convention, Feb. 1, 2012, Chapter <711> (“Dissolution”), incorporated by reference herein in its entirety. See http://www.usp.org/sites/default/files/usp_pdf/EN/USPNF/revisions/m99470-gc_711.pdf. The assembly from Apparatus 1 is used, except that a paddle formed from a blade and a shaft is used as the stirring element. The shaft is positioned so that its axis is not more than 2 mm from the vertical axis of the vessel at any point and rotates smoothly without significant wobble that could affect the results. The vertical center line of the blade passes through the axis of the shaft so that the bottom of the blade is flush with the bottom of the shaft. A distance of 25±2 mm between the bottom of the blade and the inside bottom of the vessel is maintained during the test. The metallic or suitably inert, rigid blade and shaft comprise a single entity. A suitable two-part detachable design may be used provided the assembly remains firmly engaged during the test. The paddle blade and shaft may be coated with a suitable coating so as to make them inert. The dosage unit is allowed to sink to the bottom of the vessel before rotation of the blade is started. A small, loose piece of nonreactive material, such as not more than a few turns of wire helix, may be attached to dosage units that would otherwise float. Other validated sinker devices may be used.
Unless otherwise specified, the release profiles for capsules were measured using USP Apparatus 2 (paddle).
All release profiles disclosed in Tables 3c-3p were measured with USP Apparatus 2 (paddle) at 50 rpm in 500 mL of aqueous sodium phosphate at a concentration of 0.05 M (pH=6.8). The values in a given table relate to capsules obtained from the same batch. Values shown represent mean values over a number of dissolution tests (“n” in each table) in each case.

mean value (n = 6) of % of Compound 1 released (Table 3k: size 4 capsule, 0.03 mg Compound 1, Poloxamer 188:food grade GMS 50:50, 360 min): 91.4%
mean value (n = 6) of % of Compound 1 released (Table 3k: size 4 capsule, 0.03 mg Compound 1, Poloxamer 188:food grade GMS 50:50, 480 min): 98.3%
mean value (n = 4) of % of Compound 1 released (Table 3l: size 4 capsule, 0.5 mg Compound 1, Poloxamer 188:food grade GMS 50:50, 30 min): 9.9%
mean value (n = 4) of % of Compound 1 released (Table 3l: size 4 capsule, 0.5 mg Compound 1, Poloxamer 188:food grade GMS 50:50, 60 min): 22.2%
mean value (n = 4) of % of Compound 1 released (Table 3l: size 4 capsule, 0.5 mg Compound 1, Poloxamer 188:food grade GMS 50:50, 120 min): 42.9%
mean value (n = 4) of % of Compound 1 released (Table 3l: size 4 capsule, 0.5 mg Compound 1, Poloxamer 188:food grade GMS 50:50, 180 min): 61.5%
mean value (n = 4) of % of Compound 1 released (Table 3l: size 4 capsule, 0.5 mg Compound 1, Poloxamer 188:food grade GMS 50:50, 240 min): 76.9%
mean value (n = 4) of % of Compound 1 released (Table 3l: size 4 capsule, 0.5 mg Compound 1, Poloxamer 188:food grade GMS 50:50, 360 min): 92.2%
mean value (n = 4) of % of Compound 1 released (Table 3l: size 4 capsule, 0.5 mg Compound 1, Poloxamer 188:food grade GMS 50:50, 480 min): 96.7%
mean value (n = 6) of % of Compound 1 released (Table 3m: size 4 capsule, 0.03 mg Compound 1, Poloxamer 188:food grade GMS 30:70, 60 min): 15.3%
mean value (n = 6) of % of Compound 1 released (Table 3m: size 4 capsule, 0.03 mg Compound 1, Poloxamer 188:food grade GMS 30:70, 120 min): 27.4%
mean value (n = 6) of % of Compound 1 released (Table 3m: size 4 capsule, 0.03 mg Compound 1, Poloxamer 188:food grade GMS 30:70, 180 min): 38.4%
mean value (n = 6) of % of Compound 1 released (Table 3m: size 4 capsule, 0.03 mg Compound 1, Poloxamer 188:food grade GMS 30:70, 240 min): 49.0%
mean value (n = 6) of % of Compound 1 released (Table 3m: size 4 capsule, 0.03 mg Compound 1, Poloxamer 188:food grade GMS 30:70, 360 min): 70.1%
mean value (n = 6) of % of Compound 1 released (Table 3m: size 4 capsule, 0.03 mg Compound 1, Poloxamer 188:food grade GMS 30:70, 480 min): 85.9%
mean value (n = 6) of % of Compound 1 released (Table 3m: size 4 capsule, 0.03 mg Compound 1, Poloxamer 188:food grade GMS 30:70, 600 min): 93.5%
mean value (n = 6) of % of Compound 1 released (Table 3m: size 4 capsule, 0.03 mg Compound 1, Poloxamer 188:food grade GMS 30:70, 720 min): 97.6%
mean value (n = 6) of % of Compound 1 released (Table 3m: size 4 capsule, 0.03 mg Compound 1, Poloxamer 188:food grade GMS 30:70, 840 min): 99.0%
mean value (n = 4) of % of Compound 1 released (Table 3n: size 4 capsule, 0.5 mg Compound 1, Poloxamer 188:food grade GMS 30:70, 30 min): 7.9%
mean value (n = 4) of % of Compound 1 released (Table 3n: size 4 capsule, 0.5 mg Compound 1, Poloxamer 188:food grade GMS 30:70, 60 min): 15.5%
mean value (n = 4) of % of Compound 1 released (Table 3n: size 4 capsule, 0.5 mg Compound 1, Poloxamer 188:food grade GMS 30:70, 120 min): 26.9%
mean value (n = 4) of % of Compound 1 released (Table 3n: size 4 capsule, 0.5 mg Compound 1, Poloxamer 188:food grade GMS 30:70, 180 min): 37.9%
mean value (n = 4) of % of Compound 1 released (Table 3n: size 4 capsule, 0.5 mg Compound 1, Poloxamer 188:food grade GMS 30:70, 240 min): 48.8%
mean value (n = 4) of % of Compound 1 released (Table 3n: size 4 capsule, 0.5 mg Compound 1, Poloxamer 188:food grade GMS 30:70, 360 min): 68.7%
mean value (n = 4) of % of Compound 1 released (Table 3n: size 4 capsule, 0.5 mg Compound 1, Poloxamer 188:food grade GMS 30:70, 480 min): 83.4%
mean value (n = 4) of % of Compound 1 released (Table 3n: size 4 capsule, 0.5 mg Compound 1, Poloxamer 188:food grade GMS 30:70, 600 min): 90.6%
mean value (n = 4) of % of Compound 1 released (Table 3n: size 4 capsule, 0.5 mg Compound 1, Poloxamer 188:food grade GMS 30:70, 720 min): 94.7%
mean value (n = 4) of % of Compound 1 released (Table 3n: size 4 capsule, 0.5 mg Compound 1, Poloxamer 188:food grade GMS 30:70, 735 min): 95.7%
mean value (n = 4) of % of Compound 1 released (Table 3o: size 4 capsule, 0.5 mg Compound 1, Poloxamer 188:food grade GMS 30:70, 30 min): 5.6%
mean value (n = 4) of % of Compound 1 released (Table 3o: size 4 capsule, 0.5 mg Compound 1, Poloxamer 188:food grade GMS 30:70, 60 min): 13.3%
mean value (n = 4) of % of Compound 1 released (Table 3o: size 4 capsule, 0.5 mg Compound 1, Poloxamer 188:food grade GMS 30:70, 120 min): 25.5%
mean value (n = 4) of % of Compound 1 released (Table 3o: size 4 capsule, 0.5 mg Compound 1, Poloxamer 188:food grade GMS 30:70, 180 min): 37.7%
mean value (n = 4) of % of Compound 1 released (Table 3o: size 4 capsule, 0.5 mg Compound 1, Poloxamer 188:food grade GMS 30:70, 240 min): 49.7%
mean value (n = 4) of % of Compound 1 released (Table 3o: size 4 capsule, 0.5 mg Compound 1, Poloxamer 188:food grade GMS 30:70, 360 min): 71.2%
mean value (n = 4) of % of Compound 1 released (Table 3o: size 4 capsule, 0.5 mg Compound 1, Poloxamer 188:food grade GMS 30:70, 480 min): 84.0%
mean value (n = 4) of % of Compound 1 released (Table 3o: size 4 capsule, 0.5 mg Compound 1, Poloxamer 188:food grade GMS 30:70, 600 min): 89.7%
mean value (n = 4) of % of Compound 1 released (Table 3o: size 4 capsule, 0.5 mg Compound 1, Poloxamer 188:food grade GMS 30:70, 720 min): 93.1%
mean value (n = 4) of % of Compound 1 released (Table 3o: size 4 capsule, 0.5 mg Compound 1, Poloxamer 188:food grade GMS 30:70, 735 min): 94.8%
mean value (n = 4) of % of Compound 1 released (Table 3p: size 4 capsule, 0.5 mg Compound 1, Poloxamer 188:food grade GMS 30:70, 30 min): 7.3%
mean value (n = 4) of % of Compound 1 released (Table 3p: size 4 capsule, 0.5 mg Compound 1, Poloxamer 188:food grade GMS 30:70, 60 min): 14.3%
mean value (n = 4) of % of Compound 1 released (Table 3p: size 4 capsule, 0.5 mg Compound 1, Poloxamer 188:food grade GMS 30:70, 120 min): 26.1%
mean value (n = 4) of % of Compound 1 released (Table 3p: size 4 capsule, 0.5 mg Compound 1, Poloxamer 188:food grade GMS 30:70, 180 min): 38.5%
mean value (n = 4) of % of Compound 1 released (Table 3p: size 4 capsule, 0.5 mg Compound 1, Poloxamer 188:food grade GMS 30:70, 240 min): 51.1%
mean value (n = 4) of % of Compound 1 released (Table 3p: size 4 capsule, 0.5 mg Compound 1, Poloxamer 188:food grade GMS 30:70, 360 min): 74.3%
mean value (n = 4) of % of Compound 1 released (Table 3p: size 4 capsule, 0.5 mg Compound 1, Poloxamer 188:food grade GMS 30:70, 480 min): 87.0%
mean value (n = 4) of % of Compound 1 released (Table 3p: size 4 capsule, 0.5 mg Compound 1, Poloxamer 188:food grade GMS 30:70, 600 min): 92.3%
mean value (n = 4) of % of Compound 1 released (Table 3p: size 4 capsule, 0.5 mg Compound 1, Poloxamer 188:food grade GMS 30:70, 720 min): 95.0%
Structure (SMILES): O=C(O)COC[C@H]1CC[C@H](COC(=O)N(c2ccccc2)c2ccc(Cl)cc2)CC1 [Compound 1, 2-(((1r,4r)-4-(((4-chlorophenyl)(phenyl)carbamoyloxy)methyl)cyclohexyl)methoxy)acetic acid]
